Test results: patent publication US20250127804A1, “RIBOSE LINKERS AND CONJUGATES THEREOF” (ELYSIUM HEALTH INC., priority 2022, published 2025)
Where “and” joins values, the source holds several entries; their conditions need not be identical. Equal entries are not always repeated. Entries after “also recorded” stand apart in the source; their conditions may differ. Where two headings read alike, the source gives them in different places.

Experiments:
[1] = test system: purine nucleoside phosphorylase (PNP); test: PNP enzyme activity assay (release of NAM monitored by 1H NMR); format: in vitro ADME; settings: for stability to PNP (in words): triflates dissolved in DMSO; for overall trend of stability of NR esters to PNP: rank order; for ester hydrolysis / deprotection observed during PNP incubation: over time
Protocol: To ensure that the stability rather than the solubility could be investigated, both the triflate and the chloride form of NRLR (“NRLR-OTf” and “NRLR-Cl”, respectively) were tested for their stability in aqueous buffers and as substrates of the enzyme purine nucleoside phosphorylase (PNP). The release of nicotinamide (NAM) was measured, which is indicative of water-catalyzed hydrolysis. Further, the release of ribose vs. phosphoriboside was monitored, which is indicative of PNP activity. Loss of esters via hydrolysis in buffer catalyzed condition also occurs over time. Once the C5-hydroxyl is free, PNP recognizes the nucleoside and catalyze phosphorolysis. It is not known whether this hydrolysis must occur for all the esters before PNP can act on the nucleoside. The scheme below illustrates the reaction with a partially deprotected nucleoside.
Phosphorolysis of NRCl by PNP (Sigma Aldrich) was performed in HEPES buffer, containing KH2PO4 and 10% D2O at 25° C. and was monitored by 1H NMR.
Incubations were conducted in the NMR tube which contained a final volume of 505 μl including 450 μl HEPES buffer (100.0 mM, pH 7.0), containing 100 mM KH2PO4, 50.0 μl NRCl (100.0 mM in 1 mL D2O) and when appropriate 5 μl PNP (1 mg dissolved in 50 μl HEPES buffer) was added and measurements were taken at t=5 min and 15 min.
Similarly, PNP study of NRAD-triflate was conducted in DMSO.

Solubility in water = format: physicochemical
[2] = Octanol-water partition coefficient (Pow) by 1H NMR; format: physicochemical
Protocol: The experiment was performed as described in “Measuring Lipophilicity with NMR,” SpinSolve Carbon®, MagriTek (2014). Briefly, ^1H NMR spectra were recorded for NRLR-Cl in D2O, then an equivalent volume of 1-octanol was added to the same NMR tube, and the ^1H NMR was recorded again. The measurements were performed in triplicate. The Pow was calculated based on the concentrations of the NRLR-Cl in the D2O layer and in the octanol layer, as determined based on the NMR peak values. The average measured log POW of NRLR-Cl is 1.816.

[3] = test system: enhanced lipase (Candida rugens); test: Lipase assay; format: in vitro ADME
Protocol: NRLR was subjected to a lipase assay in 10% DMSO, 450 μL HEPES buffer, and enhanced lipase (Candida rugens).

[4] = 1-octanol/D2O, single experiment, listed as NRLR-CI

| Compound | stability to PNP (in words) ([1]; 1H NMR) | overall trend of stability of NR esters to PNP [1] | solubility in water (Solubility in water) | ester hydrolysis / deprotection observed during PNP incubation ([1]; 1H NMR) | remaining NR diester peaks ([1]; PNP, after 2 days (FIG. 40B)) | other results |
| --- | --- | --- | --- | --- | --- | --- |
| NC(=O)c1ccc[n+]([C@@H]2O[C@H](CO)[C@@H](O)[C@H]2O)c1 [NRCl, Nicotinamide riboside, reference compound] | least stable to PNP enzyme | NRTA>NRAD>NRML>NRLR>NRCl | – | – | – | time to complete conversion/degradation to NAM after PNP addition ([1]; HEPES buffer pH 7.0, KH2PO4, 10% D2O, 25° C., 1H NMR, listed as NR): ≤ 5 min |
| CCCCCCCCCCCC(=O)OC[C@H]1O[C@@H]([n+]2cccc(C(N)=O)c2)[C@H](OC(C)=O)[C@@H]1OC(C)=O [NRLR-Cl, NRLR-Chloride] | – | – | soluble in water | – | – | Average (LogPow) ([2]; 1-octanol/D2O, average of triplicate): 1.816; logP ([2]; 1-octanol/D2O, average of triplicate, read-out: Average (LogPow)): 1.82; LogPow [2, 4]: 1.89 and 1.80 and 1.76; Pow [2, 4]: 78.66 and 63.33 and 58.88; Peak values in water layer ([2]; 1H NMR in D2O before octanol addition, listed as NRLR-CI): 0.0478 and 0.0386 and 0.0539; Peak values after octanol addition ([2]; 1H NMR, D2O layer after equivalent volume of 1-octanol, listed as NRLR-CI): 0.0006 and 0.0009 |
| CC(=O)OC[C@H]1O[C@@H]([n+]2cccc(C(N)=O)c2)[C@H](OC(C)=O)[C@@H]1OC(C)=O [NRTA, NR triacetate, reference compound] | stable to PNP; also recorded: more stable to PNP than NRCL | NRTA>NRAD>NRML>NRLR>NRCl | – | Slow partial ester hydrolysis | – | hydrolysis and NAM release with PNP ([1]; after 24 hours): very slowly hydrolyzed and releases NAM |
| CC(=O)O[C@@H]1[C@H](OC(C)=O)[C@@H](COC(=O)CC(=O)OC[C@H]2O[C@@H]([n+]3cccc(C(N)=O)c3)[C@H](OC(C)=O)[C@@H]2OC(C)=O)O[C@H]1[n+]1cccc(C(N)=O)c1 [compound 8a, NR malonate] | less stable compared to NR adipate | NRTA>NRAD>NRML>NRLR>NRCl | – | – | still showed some NR diester peaks | – |
| CC(=O)O[C@@H]1[C@H](OC(C)=O)[C@@H](COC(=O)CCCCC(=O)OC[C@H]2O[C@@H]([n+]3cccc(C(N)=O)c3)[C@H](OC(C)=O)[C@@H]2OC(C)=O)O[C@H]1[n+]1cccc(C(N)=O)c1 [compound 8d, NR adipate] | appears stable to PNP | NRTA>NRAD>NRML>NRLR>NRCl | – | ester dimer appeared to remain intact | still showed some NR diester peaks | – |
| NR-laurate (NRLR) triflate [compound 8g] | less stable compared to NR adipate | NRTA>NRAD>NRML>NRLR>NRCl | not completely soluble in water | partial deprotection of the esters over time | – | increase in NAM ([1]; PNP, after 1 day (FIG. 40A)): 30%; degraded to NAM ([1]; PNP, after 2 days (FIG. 40B)): ~90%; overall increase in NAM ([1]; PNP, over 24 hours): 17%; partial loss of one ester [3]: < 5%; effect of increased concentration of lipase ([3]; over 12 hours of incubation): no effect; solubility in water (Solubility in water; listed as NRLR-OTf): is not |
